Assay results published in patent US20100021541A1, “Microparticulate form of a Tetrahydropyridine derivative” (SANOFI-AVENTIS, priority 1996, published 2010).

Key:
[1] = Clinical trials on healthy volunteers evaluating the effect of food on oral absorption; type: in vivo; conditions: for required dose relative to the product of Example 5 to obtain the same absorption: absorption = area under the curve of plasma SR 57746 concentrations; for absorption with a meal versus on an empty stomach: oral, area under the curve of plasma SR 57746 concentrations
Description: The results obtained in vitro were confirmed in vivo by comparing the observations made in two clinical trials on healthy volunteers, the first trial evaluating the effect of food on the oral absorption of the SR 57746 A obtained according to EP 0 101 381, and the second trial evaluating the effect of food on the oral absorption of the SR 57746 A of Example 5 below. In both the trials, the criterion for evaluation of the absorption was the area under the curve of the plasma SR 57746 concentrations as a function of time.

CACO-2 monolayer = CACO-2 monolayer model, in vitro absorption (dissolution and permeability); type: in vitro ADME; conditions: Hanks' solution supplemented with 10% of fetal calf serum and taurocholic acid
Experimental: A study concerning the determination of the in vitro absorption of the microparticles according to the present invention was carried out using the CACO-2 monolayer model.

[2] = system: amyotrophic lateral sclerosis; conditions: 2 mg/day; cited from earlier work
[3] = Phase I clinical trials on healthy volunteers, oral administration; type: in vivo; conditions: administered orally
Description: EP 0 101 381 describes SR 57746 in the form of the hydrochloride, hereafter called SR 57746 A, and this salt was used in preclinical and clinical trials on healthy volunteers (Phase I). According to said document, SR 57746 is isolated by crystallization from ethanol, especially absolute ethanol.

[4] = Preclinical trials: animal pharmacology, toxicology and pharmacokinetic studies; set-up: species or system animals; conditions: in vivo

SMILES: Cl.FC(F)(F)c1cccc(C2=CCN(CCc3ccc4ccccc4c3)CC2)c1 [1-[2-(2-naphthyl)ethyl]-4-(3-trifluoromethylphenyl)-1,2,3,6-tetrahydropyridine hydrochloride]
- required dose relative to the product of Example 5 to obtain the same absorption ([1]; administered on an empty stomach): about nine times greater
- required dose relative to the product of Example 5 to obtain the same absorption ([1]; administered with a meal): three to four times greater
- absorption with a meal versus on an empty stomach ([1]; hydrochloride): two to three times greater

SMILES: Cl.FC(F)(F)c1cccc(C2=CCN(CCc3ccc4ccccc4c3)CC2)c1 [Example 5]
- dissolution and permeability (CACO-2 monolayer): rendered uniform
- absorption with a meal versus on an empty stomach [1]: the absorption is the same

SMILES: Cl.FC(F)(F)c1cccc(C2=CCN(CCc3ccc4ccccc4c3)CC2)c1 [SR 57746 A, 1-[2-(2-naphthyl)ethyl]-4-(3-trifluoromethylphenyl)-1,2,3,6-tetrahydropyridine hydrochloride]
- clinical outcome in amyotrophic lateral sclerosis [2]: proved promising
- variability in the plasma concentrations and the pharmacodynamic effects [3]: high variability

SMILES: FC(F)(F)c1cccc(C2=CCN(CCc3ccc4ccccc4c3)CC2)c1 [SR 57746, 1-[2-(2-Naphthyl)ethyl]-4-(3-trifluoromethylphenyl)-1,2,3,6-tetrahydropyridine]
- activity and behavior in animal pharmacology and toxicology tests [4]: constant activity and behavior
- pharmacokinetic studies on animals [4]: constant and reproducible results
